# Values quoted from earlier work as cited in patent US8759329B2 (Unimed Pharmaceuticals, LLC, priority 2005, dated 2014).
# Experiments:
# protein (SHBG, albumin) [1] = biological target: protein (SHBG, albumin) (Homo sapiens, UniProt P02768); conditions: in men
# protein (SHBG, albumin) [2] = biological target: T1, protein (SHBG, albumin) (Homo sapiens, UniProt P04278); conditions: in men
# T1 sequence (P04278 30-402): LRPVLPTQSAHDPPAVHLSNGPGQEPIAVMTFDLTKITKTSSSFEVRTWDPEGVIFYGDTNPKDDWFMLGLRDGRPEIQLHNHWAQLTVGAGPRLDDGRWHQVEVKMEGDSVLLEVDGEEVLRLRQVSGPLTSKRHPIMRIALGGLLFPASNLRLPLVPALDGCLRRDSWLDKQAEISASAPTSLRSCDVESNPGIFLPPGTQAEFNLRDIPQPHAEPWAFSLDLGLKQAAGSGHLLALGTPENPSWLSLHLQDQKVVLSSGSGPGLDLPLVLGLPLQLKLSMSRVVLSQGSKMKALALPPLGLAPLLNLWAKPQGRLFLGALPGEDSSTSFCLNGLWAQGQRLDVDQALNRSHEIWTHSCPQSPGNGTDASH
# protein (SHBG, albumin) [3] = conditions: circulating testosterone
# protein (SHBG, albumin) (Homo sapiens, UniProt P02768), sequence (P02768 25-609): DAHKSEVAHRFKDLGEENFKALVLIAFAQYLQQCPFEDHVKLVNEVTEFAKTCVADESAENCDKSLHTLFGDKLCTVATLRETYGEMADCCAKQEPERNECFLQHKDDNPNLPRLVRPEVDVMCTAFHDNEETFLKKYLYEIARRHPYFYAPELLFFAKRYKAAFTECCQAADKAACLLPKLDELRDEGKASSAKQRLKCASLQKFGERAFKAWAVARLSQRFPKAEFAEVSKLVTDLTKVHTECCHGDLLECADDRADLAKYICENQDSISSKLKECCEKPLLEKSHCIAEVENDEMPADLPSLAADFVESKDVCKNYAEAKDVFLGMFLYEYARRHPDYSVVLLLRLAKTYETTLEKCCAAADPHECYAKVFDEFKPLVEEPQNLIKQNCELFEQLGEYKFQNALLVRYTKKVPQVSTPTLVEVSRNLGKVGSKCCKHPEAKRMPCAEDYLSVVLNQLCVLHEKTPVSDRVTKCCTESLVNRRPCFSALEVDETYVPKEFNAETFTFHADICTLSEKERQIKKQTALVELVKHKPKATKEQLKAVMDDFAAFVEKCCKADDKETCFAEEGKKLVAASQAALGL
structure (smiles),measurement,setting,value
C[C@]12CC[C@H]3[C@@H](CCC4=CC(=O)CC[C@@]43C)[C@@H]1CC[C@@H]2O [testosterone],share bound weakly to albumin,"protein (SHBG, albumin) [1]",60%
same,share of the binding to SHBG,"protein (SHBG, albumin) [2]",approximately 40%
same,bound to protein in the blood,"protein (SHBG, albumin) [3]",98%
